Experimental data reported in patent US8461328B2, “Tricyclic heterocyclic compounds, compositions and methods of use thereof” (Genentech, Inc., priority 2010, dated 2013).

Key:
Format in all cases: biochemical
[1] = molecular target: T1, JAK3 (Homo sapiens, UniProt P52333); assay: JAK3 inhibition (Table 4); conditions: read-out: JAK3 Ki
T1 construct: made in house; host or cells: SF9 insect cells (baculovirus)

[2] = molecular target: T2, JAK1 (Homo sapiens, UniProt P23458); assay: JAK1 inhibition (Table 4); conditions: read-out: JAK1 Ki
T2 construct: made in house; host or cells: SF9 insect cells (baculovirus)

[3] = molecular target: T3, TYK2 (Homo sapiens, UniProt P29597); assay: TYK2 inhibition (Table 4)
T3 construct: made in house; host or cells: SF9 insect cells (baculovirus)
T3 sequence (P29597 873-1187): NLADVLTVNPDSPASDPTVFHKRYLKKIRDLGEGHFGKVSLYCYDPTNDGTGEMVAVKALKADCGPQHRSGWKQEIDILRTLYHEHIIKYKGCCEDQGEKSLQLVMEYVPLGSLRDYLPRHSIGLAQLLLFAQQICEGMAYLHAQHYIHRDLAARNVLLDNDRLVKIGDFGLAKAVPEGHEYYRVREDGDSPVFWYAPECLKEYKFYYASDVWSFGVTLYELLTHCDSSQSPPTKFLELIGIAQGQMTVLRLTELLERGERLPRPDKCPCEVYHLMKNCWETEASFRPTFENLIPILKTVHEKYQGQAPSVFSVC

[4] = molecular target: T4, JAK2 (Homo sapiens, UniProt O60674); assay: JAK2 inhibition (Table 4); conditions: read-out: JAK2 Ki
T4 construct: made in house; host or cells: SF9 insect cells (baculovirus)
T4 sequence (O60674 812-1132): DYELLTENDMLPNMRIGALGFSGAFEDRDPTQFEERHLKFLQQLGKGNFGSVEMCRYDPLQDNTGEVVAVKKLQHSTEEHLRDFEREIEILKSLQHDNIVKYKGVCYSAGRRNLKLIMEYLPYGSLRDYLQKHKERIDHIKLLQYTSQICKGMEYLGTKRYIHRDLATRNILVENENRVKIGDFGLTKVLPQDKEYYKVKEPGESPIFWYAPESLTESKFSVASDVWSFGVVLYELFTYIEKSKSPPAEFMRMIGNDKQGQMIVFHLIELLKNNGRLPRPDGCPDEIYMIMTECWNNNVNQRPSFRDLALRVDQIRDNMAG

T2 sequence (P23458 852-1154): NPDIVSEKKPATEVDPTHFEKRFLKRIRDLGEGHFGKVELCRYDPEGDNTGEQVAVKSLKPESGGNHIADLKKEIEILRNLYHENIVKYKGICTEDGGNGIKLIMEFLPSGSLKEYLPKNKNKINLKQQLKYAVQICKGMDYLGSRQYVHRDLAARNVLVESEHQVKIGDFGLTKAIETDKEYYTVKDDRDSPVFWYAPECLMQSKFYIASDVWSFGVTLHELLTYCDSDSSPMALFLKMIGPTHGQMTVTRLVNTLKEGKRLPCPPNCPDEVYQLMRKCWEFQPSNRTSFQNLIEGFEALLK
T1 sequence (P52333 783-1124): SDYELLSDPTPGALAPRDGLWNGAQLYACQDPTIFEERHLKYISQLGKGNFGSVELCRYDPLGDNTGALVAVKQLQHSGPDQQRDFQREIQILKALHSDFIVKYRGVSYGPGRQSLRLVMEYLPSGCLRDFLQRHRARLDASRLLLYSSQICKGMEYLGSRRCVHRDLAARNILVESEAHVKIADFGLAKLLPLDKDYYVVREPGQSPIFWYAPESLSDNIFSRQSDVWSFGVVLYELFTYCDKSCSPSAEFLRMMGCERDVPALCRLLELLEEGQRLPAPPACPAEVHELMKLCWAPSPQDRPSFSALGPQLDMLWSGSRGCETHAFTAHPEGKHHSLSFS

Compound	Ki [1] [nM]	Ki [2] [nM]	Ki [3] [nM]	Ki [4] [nM]
O=C(Cc1nc2cnc3[nH]ccc3c2n1C1CCN(Cc2ccccc2)CC1)NC1CCCC1 [Example 99, 2-[1-(1-Benzyl-piperidin-4-yl)-1,6-dihydro-1,3,5,6-tetraaza-as-indacen-2-yl]-N-cyclopentyl-acetamide]	10.8	4.29	586	16.4
O=C(Cc1nc2cnc3[nH]ccc3c2n1C1CCN(Cc2ccccc2)CC1)N1CCCC1 [Example 100, 2-[1-(1-Benzyl-piperidin-4-yl)-1,6-dihydro-1,3,5,6-tetraaza-as-indacen-2-yl]-1-pyrrolidin-1-yl-ethanone]	16.9	22.1	2100	99.2
CN(C(=O)Cc1nc2cnc3[nH]ccc3c2n1C1CCN(Cc2ccccc2)CC1)C1CCCC1 [Example 101, 2-[1-(1-Benzyl-piperidin-4-yl)-1,6-dihydro-1,3,5,6-tetraaza-as-indacen-2-yl]-N-cyclopentyl-N-methyl-acetamide]	27.7	41	3230	194
O=C(Cc1nc2cnc3[nH]ccc3c2n1C1CCN(Cc2ccccc2)CC1)N1CCS(=O)(=O)CC1 [Example 102, 2-[1-(1-Benzyl-piperidin-4-yl)-1,6-dihydro-1,3,5,6-tetraaza-as-indacen-2-yl]-1-(1,1-dioxo-1λ*6*thiomorpholin-4-yl)ethanone]	9.7	5.78	442	51.4
CC(C)NC(=O)Cc1nc2cnc3[nH]ccc3c2n1C1CCN(Cc2ccccc2)CC1 [Example 103, 2-[1-(1-Benzyl-piperidin-4-yl)-1,6-dihydro-1,3,5,6-tetraaza-as-indacen-2-yl]-N-isopropylacetamide]	11.6	5.09	673	17.3
c1cc2c(ncc3ncn(C4CCN(Cc5cncs5)CC4)c32)[nH]1 [Example 104, 1-(1-Thiazol-5-ylmethyl-piperidin-4-yl)-1,6-dihydro-1,3,5,6-tetraaza-as-indacene]	11.5	0.9	20.9	1.69
CC(=O)N[C@H]1CC[C@H](n2cnc3cnc4[nH]ccc4c32)CC1 [Example 106, Trans N-[4-(6H-1,3,5,6-tetraaza-as-indacen-1-yl)-cyclohexyl]acetamide]	43.6	5.5	35.6	10.8
Cc1nc2cnc3[nH]ccc3c2n1C1CCC(F)(F)CC1 [Example 114, 1-(4,4-Difluoro-cyclohexyl)-2-methyl-1,6-dihydro-1,2,3,5,6-tetraaza-as-indacene]	17	9.74	16.7	28.7
CS(=O)(=O)N1CCC(n2c(CC3CCCC3)nc3cnc4[nH]ccc4c32)CC1 [Example 115, 2-Cyclopentylmethyl-1-(1-methanesulfonyl-piperidin-4-yl)-1,6-dihydro-1,2,3,5,6-tetraaza-as-indacene]	547	320	153	744
N#CCCN1CCC(n2c(CC3CCCC3)nc3cnc4[nH]ccc4c32)CC1 [Example 116, 3-[4-(2-Cyclopentylmethyl-6H-1,2,3,5,6-tetraaza-as-indacen-1-yl)-piperidin-1-yl]-propionitrile]	58	19.7	322	76.9
CCCS(=O)(=O)N1CCC(n2c(CC(N)=O)nc3cnc4[nH]ccc4c32)CC1 [Example 117, 2-{1-[1-(Propane-1-sulfonyl)-piperidin-4-yl]-1,6-dihydro-1,2,3,5,6-tetraaza-as-indacen-2-yl}-acetamide]	746	131	1530	781
CS(=O)(=O)NCCc1nc2cnc3[nH]ccc3c2n1C1CCN(CCC#N)CC1 [Example 118, N-(2-{1-[1-(2-Cyano-ethyl)-piperidin-4-yl]-1,6-dihydro-1,2,3,5,6-tetraaza-as-indacen-2-yl}-ethyl)-methanesulfonamide]	23.6	1.94	63.1	12
COCC(=O)N1CCC(n2c(Cc3conc3C)nc3cnc4[nH]ccc4c32)CC1 [Example 119, 2-Methoxy-1-{4-[2-(3-methyl-isoxazol-4-ylmethyl)-6H-1,2,3,5,6-tetraaza-as-indacen-1-yl]-piperidin-1-yl}-ethanone]	1160	77.7	1030	1310
CCCc1nc2cnc3[nH]ccc3c2n1C1CCN(CCC#N)CC1 [Example 120, 3-[4-(2-Propyl-6H-1,2,3,5,6-tetraaza-as-indacen-1-yl)-piperidin-1-yl]-propionitrile]	11.2	5.56	82.1	10.3
Cc1nc2cnc3[nH]ccc3c2n1C1CC2CCC1C2 (stereo not shown) [Example 121, 1-Bicyclo[2.2.1]hept-2-yl-2-methyl-1,6-dihydro-1,2,3,5,6-tetraaza-as-indacene]	9.31	1.01	5.09	2.78
Cc1nc2cnc3[nH]ccc3c2n1C1CC2CCC1C2 (stereo not shown) [Example 121a, 1-Bicyclo[2.2.1]hept-2-yl-2-methyl-1,6-dihydro-1,2,3,5,6-tetraaza-as-indacene]	7.35	0.32	2.35	1.8
CCc1nc2cnc3[nH]ccc3c2n1C1CCN(C(C)CC#N)CC1 (stereo not shown) [Example 123, 3-[4-(2-Ethyl-6H-1,2,3,5,6-tetraaza-as-indacen-1-yl)-piperidin-1-yl]-butyronitrile]	23.6	3.55	31	7.14
CC(C)(C)OC(=O)N1CCC(n2cnc3cnc4[nH]ccc4c32)CC1 [Example 124, 4-(6H-1,2,3,5,6-Tetraaza-as-indacen-1-yl)-piperidine-1-carboxylic acid tert-butyl ester]	845	24.5	225	33.2
CC(C)(C)OC(=O)N1CCC(C)(n2cnc3cnc4[nH]ccc4c32)CC1 [Example 132, 4-Methyl-4-(6H-1,2,3,5,6-tetraaza-as-indacen-1-yl)-piperidine-1-carboxylic acid tert-butyl ester]	1120	25.4	696	193
O=C(N[C@H]1CC[C@H](n2cnc3cnc4[nH]ccc4c32)CC1)OCC1CC1 [Example 140, Trans[4-(6H-1,2,3,5,6-Tetraaza-as-indacen-1-yl)-cyclohexyl]-carbamic acid cyclopropylmethyl ester]	88.1	5.16	78.8	17.4
O=C(N[C@H]1CC[C@H](n2cnc3cnc4[nH]ccc4c32)CC1)OC1CCNCC1 [Example 141, Trans[4-(6H-1,2,3,5,6-Tetraaza-as-indacen-1-yl)-cyclohexyl]-carbamic acid piperidin-4-yl ester]	393	8.44	330	23.7
CN([C@H]1CC[C@H](n2cnc3cnc4[nH]ccc4c32)CC1)S(C)(=O)=O [Example 142, Trans N-Methyl-N-[4-(6H-1,2,3,5,6-tetraaza-as-indacen-1-yl)-cyclohexyl]-methanesulfonamide]	211	4.82	43.7	3.35
CC(C)(C)OC(=O)N1CCC[C@H]1C(=O)N1CCC(n2cnc3cnc4[nH]ccc4c32)CC1 [Example 144, (S)-2-[4-(6H-1,2,3,5,6-Tetraaza-as-indacen-1-yl)-piperidine-1-carbonyl]-pyrrolidine-1-carboxylic acid tert-butyl ester]	3520	251	3160	382
N#CCN1CCC[C@H]1C(=O)N1CCC(n2cnc3cnc4[nH]ccc4c32)CC1 [Example 146, {(S)-2-[4-(6H-1,2,3,5,6-Tetraaza-as-indacen-1-yl)-piperidine-1-carbonyl]-pyrrolidin-1-yl}-acetonitrile]	2770	150	1730	190
CC(C)(O)[C@H]1CC[C@H](n2cnc3cnc4[nH]ccc4c32)CC1 [Example 148, Trans 2-[4-(6H-1,2,3,5,6-Tetraaza-as-indacen-1-yl)-cyclohexyl]-propan-2-ol]	23.8	1.73	12.3	1.92
O=C1CCC2(CCC(n3cnc4cnc5[nH]ccc5c43)CC2)N1 (stereo not shown) [Example 152, 8-(6H-1,2,3,5,6-Tetraaza-as-indacen-1-yl)-1-aza-spiro[4.5]decan-2-one]	39.7	3.14	13.8	4.73
CNC(=O)c1nc2cnc3[nH]ccc3c2n1C1CCN(Cc2ccccc2)CC1 [Example 159, 1-(1-Benzyl-piperidin-4-yl)-1,6-dihydro-1,2,3,5,6-tetraaza-as-indacene-2-carboxylic acid methylamide]	32.6	20.6	2330	23.8
N#CCCN1CCC(n2c(CC(=O)N3CCOCC3)nc3cnc4[nH]ccc4c32)CC1 [Example 160, 3-{4-[2-(2-Morpholin-4-yl-2-oxo-ethyl)-6H-1,2,3,5,6-tetraaza-as-indacen-1-yl]-piperidin-1-yl}-propionitrile]	10.7	8.43	100	70.6
